From US9822170B2, “Co-use of a clusterin inhibitor with an EGFR inhibitor to treat cancer” (ALETHIA BIOTHERAPEUTICS INC., priority 2012, dated 2017)

B1: 16B5: murine anti-clusterin (sCLU) antibody that blocks EMT; VL SEQ ID NO.:25, VH SEQ ID NO.:29 (antibody, V domains shown)
VH: EVQLQQSGAELVKPGASVRLSCTTSGFNIKDIYMHWVKQRPEQGLEWIGRIDPAYGNTKYDPKFQGKATITADTSSNTAYLQLSSLTSEDTAVYYCARRYDTAMDYWGQGTSVTVSS
VL: DIVMSQSPSSLAVSAGEKVTMSCKSSQSLLNSRTRKNYLAWYQQKPGQSPKLLIYWASTRESGVPDRFTGSGSGTDFTLTISSVQAEDLAVYYCKQSYNLWTFGGGTKLEFK
modifications: murine 16B5 heavy chain variable region; murine 16B5 light chain variable region

Experiments:
[1] = test system: H1299 cells; assay: CellTiter-Glo Luminescent Cell Viability Assay; assay type: cell-based, human
Procedure: (§1) Following this induction, the cells were treated with erlotinib (20 μM) for 96 h and the number of cells was determined using the CellTiter-Glo® Luminescent Cell Viability Assay (Promega, Madison, Wis.). As a control, additional cells were not induced with sCLU or TGFβ. […] We also compared the response to erlotinib in cells that were induced to undergo an EMT with either sCLU or TGFβ.

[2] = test system: H460 cells; assay: CellTiter-Glo Luminescent Cell Viability Assay; assay type: cell-based, human; settings: sCLU 0.25 μg/ml or TGFβ 2 nM for 48 h, then erlotinib 20 μM for 96 h
Procedure: as §1

[3] = test system: cancer cells; settings: incubated with cancer cells; WO2007/030930, WO2011/063523; cited from earlier work

Row | Molecule | responsiveness to erlotinib after stimulation of EMT ([1]; H1299 cells, sCLU 0.25 μg/ml or TGFβ 2 nM for 48 h, then erlotinib 20 μM for 96 h) | sensitivity of the cells to erlotinib ([1]; H1299 compared with H460 cells, erlotinib 20 μM for 96 h) | responsiveness to erlotinib after stimulation of EMT [2] | blocking of EMT (maintenance of membrane E-cadherin expression) [3]
1 | C#Cc1cccc(Nc2ncnc3cc(OCCOC)c(OCCOC)cc23)c1 [erlotinib] | did not change the responsiveness | H1299 cells were more sensitive to erlotinib than the H460 cells | did not change the responsiveness | 
2 | B1 |  |  |  | could block EMT
